In patent publication US11160785B2, “Methods and compositions for improving cognitive function” (AgeneBio, Inc., priority 2013, dated 2021):

Columns and labels:
MAM-treated rats = conditions: cited from earlier work
aged-impaired rats [1] = experiment: Radial Arm Maze task, acute brivaracetam or seletracetam (Example 4); conditions: rat, in vivo
aged-impaired rats [2] = experiment: water maze task after chronic treatment (Example 4); format: in vivo, rat; conditions: brivaracetam 2 mg/kg/day, osmotic mini-pump
Description: Another cognitive test that may be used to assess the effects of a test compound on the cognitive impairment of a CNS disorder model animal is the Morris water maze. A water maze is a pool surrounded with a novel set of patterns relative to the maze. […] The subject is trained to locate a submerged escape platform hidden underneath the surface of the pool. During the training trial, a subject is released in the maze (pool) from random starting positions around the perimeter of the pool. The starting position varies from trial to trial. […] After a delay period following the last training trial, a retention test in the absence of the escape platform is given to assess spatial memory. The subject's level of preference for the location of the (now absent) escape platform, as measured by, e.g., the time spent in that location or the number of crossings of that location made by the mouse, indicates better spatial memory, i.e., treatment of cognitive impairment. The preference for the location of the escape platform under different treatment conditions, can then be compared for efficacy of the test compound in treating cognitive impairment associated with CNS disorders.
The radial arm maze experiments used acute administration of seletracetam (0-4 mg/kg), brivaracetam (0-4 mg/kg), or saline vehicle given by intraperitoneal injection (in a volume of 1 ml/kg) 30-40 min prior to test sessions. In the chronic treatment experiment, memory-impaired aged rats were implanted subcutaneously in the intrascapular region with osmotic mini-pumps (ALZET, Durect Corporation, Cupertino, Calif.) with brivaracetam (2 mg/kg/day) or saline vehicle starting two weeks prior to assessment in the water maze.
Rats were trained and tested in a novel water maze environment to assess the effect of drug treatment. The water maze used here was housed in a different building and was surrounded by curtains with a novel set of patterns relative to the maze used for initial assessment of cognitive status. The training protocol consisted of 6 trials per day for 2 days to locate a submerged escape platform. […]

aged-impaired rats (AI) = format: in vivo, rat; conditions: rat, in vivo
Description: FIG. 1 depicts the effects of administering levetiracetam on the spatial memory retention of ten aged-impaired rats (AI) in an eight-arm Radial Arm Maze (RAM) test. Six treatment conditions are employed: vehicle control, levetiracetam (1.25 mg/kg/day), levetiracetam (2.5 mg/kg/day), levetiracetam (5 mg/kg/day), levetiracetam (10 mg/kg/day) and levetiracetam (20 mg/kg/day). In the RAM task used, there is a one-hour delay between presentation of a subset of arms (5 arms available and 3 arms blocked) and completion of the eight-arm win-shift task (eight arms available). Rats are pre-treated 30-40 minutes before daily trials with a one-time drug/control treatment. The number of errors made by the rats during the retention phase is used as a measure of spatial memory retention. Errors are defined as instances when rats enter an arm from which food has already been retrieved in the pre-delay component of the trial or when rats re-visit an arm in the post-delay session that had already been visited. Paired t-tests are used to compare the number of errors between different doses of levetiracetam and vehicle control. […]
A Radial Arm Maze (RAM) behavioral task is one example of a cognitive test, specifically testing spacial memory (Chappell et al. Neuropharmacology 37: 481-487, 1998). The RAM apparatus consists of, e.g., eight equidistantly spaced arms. A maze arm projects from each facet of a center platform. A food well is located at the distal end of each arm. Food is used as a reward. Blocks can be positioned to prevent entry to any arm. Numerous extra maze cues surrounding the apparatus may also be provided. After habituation and training phases, spatial memory of the subjects may be tested in the RAM under control or test compound-treated conditions. As a part of the test, subjects are pretreated before trials with a vehicle control or one of a range of dosages of the test compound. At the beginning of each trial, a subset of the arms of the eight-arm maze is blocked. Subjects are allowed to obtain food on the unblocked arms to which access is permitted during this initial “information phase” of the trial. Subjects are then removed from the maze for a delay period, e.g., a 60 second delay, a 15 minute delay, a one-hour delay, a two-hour delay, a six hour delay, a 24 hour delay, or longer) between the information phase and the subsequent “retention test,” during which the barriers on the maze are removed, thus allowing access to all eight arms. […] The identity and configuration of the blocked arms vary across trials. The number of “errors” the subjects make during the retention test phase is tracked. An error occurs in the trial if the subjects entered an arm from which food had already been retrieved in the pre-delay component of the trial, or if it re-visits an arm in the post-delay session that had already been visited. A fewer number of errors would indicate better spatial memory. The number of errors made by the test subject, under various test compound treatment regimes, can then be compared for efficacy of the test compound in treating cognitive impairment associated with CNS disorders.

C#Cc1ccc2c(c1)C(c1ccccc1F)=N[C@H](C)c1c(C(=O)OCC)ncn1-2 [SH-053-2′F-R-CH3]
number of spontaneously active DA neurons in the ventral tegmental area (VTA) (MAM-treated rats; MAM rats, administered systemically or infused into the ventral HPC, to levels of saline-treated rats): reduces the number of spontaneously active DA neurons
increased locomotor response to amphetamine (MAM-treated rats; MAM-treated rats): reduced
cortical-evoked responses of HPC neurons (MAM-treated rats; saline-treated and MAM-treated animals): diminished cortical-evoked responses

CCC[C@@H]1CC(=O)N([C@@H](CC)C(N)=O)C1 [brivaracetam]
number of errors in the retention phase, effect as a function of dose (aged-impaired rats [1]): significant effect as a function of dose
spatial bias for the target quadrant compared to the other quadrants (probe test) (aged-impaired rats [2]; 14 days, n=3/group, t(2)=10.000, p=0.010): significant spatial bias for the target quadrant
time in the target annulus vs vehicle-treated rats (aged-impaired rats [2]; t(4)=3.109, p=0.036): significantly more time in the target annulus
time in the target quadrant vs vehicle-treated rats (aged-impaired rats [2]; t(4)=3.881, p=0.018): significantly more time in the target quadrant

COc1cc2c(cc1OC)C(=O)C(CC1CCN(Cc3ccccc3)CC1)C2 (stereo not drawn) [donepezil, 2,3-dihydro-5,6-dimethoxy-2-((1-(phenylmethyl)-4-piperidinyl)methyl)-1H-inden-1-one]
average no. of errors±SEM (aged-impaired rats (AI)): 2.81±0.43
average no. of errors±standard error of the mean (SEM) (aged-impaired rats (AI)): 2.88±0.46

CC[C@@H](C(N)=O)N1C[C@H](C=C(F)F)CC1=O [seletracetam]
number of errors in the retention phase, effect as a function of dose (aged-impaired rats [1]): significant effect as a function of dose

NC1=N[C@H](O)[C@H]2[C@H]3O[C@]4(O)O[C@@H]([C@@H](O)[C@@]2(N1)[C@@H]4O)[C@]3(O)CO [tetrodotoxin]
augmented amphetamine-induced locomotor behavior (MAM-treated rats; rat, in vivo): normalized the augmented amphetamine-induced locomotor behavior
elevated DA neuron population activity (MAM-treated rats; rat, in vivo): completely reversed the elevated DA neuron population activity
